Measured values: PMC6996298 (Frontiers in Plant Science, 2020)
Blank lines part the entries; values can stand above or below the molecule they belong to.

Columns and labels:
VvSWEET7 = target: T1, VvSWEET7 (Vitis vinifera, UniProt A0ACM8QLM4); test: inhibition of D-[…]-glucose uptake in yeast EBY.VW4000; type: cell-based; settings: read-out: % inhibition at 500 mM
T1 construct: gene VIT_02s0025g02080; full-length cDNA in pYES-DEST52 (GAL1 promoter), expressed in hxt-null S. cerevisiae EBY.VW4000
T1 sequence (A0ACM8QLM4 1-260): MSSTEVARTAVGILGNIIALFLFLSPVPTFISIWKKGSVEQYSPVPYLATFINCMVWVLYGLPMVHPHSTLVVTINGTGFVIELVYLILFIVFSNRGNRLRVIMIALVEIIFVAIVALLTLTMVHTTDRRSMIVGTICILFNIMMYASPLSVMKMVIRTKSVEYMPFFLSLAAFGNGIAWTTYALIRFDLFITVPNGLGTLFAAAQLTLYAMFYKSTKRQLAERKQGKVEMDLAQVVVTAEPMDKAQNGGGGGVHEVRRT

[1] = substrate: OC[C@H]1O[C@@](CO)(O[C@H]2O[C@H](CO)[C@@H](O)[C@H](O)[C@H]2O)[C@@H](O)[C@@H]1O; test: initial uptake of radiolabelled sugar in yeast EBY.VW4000, Michaelis-Menten; type: cell-based, Vitis vinifera; settings: labelled compound, 7.5-125 mM, KH2PO4 pH 5.0, 30 °C, 3 min

Molecule: OC[C@@H](O)[C@@H](O)[C@H](O)[C@@H](O)CO [sorbitol]
inhibition at 500000 µM (VvSWEET7): 38%

Molecule: OC[C@@H](O)[C@@H](O)[C@H](O)[C@H](O)CO [mannitol]
inhibition at 500000 µM (VvSWEET7): 29%

inhibition at 500000 µM (VvSWEET7): 79%
Molecule: OCC1(O)OC[C@@H](O)[C@@H](O)[C@@H]1O (some centres unmarked) [fructose]

inhibition at 500000 µM (VvSWEET7): 56%
Molecule: OC[C@H]1OC(O)[C@H](O)[C@@H](O)[C@H]1O (some centres unmarked) [galactose]

B1: VvSWEET7 (Vitis vinifera) (protein)
chain: T1 sequence (A0ACM8QLM4 1-260)
notes: full-length cDNA in pYES-DEST52 (GAL1 promoter), expressed in hxt-null S. cerevisiae EBY.VW4000
Km [1]: 40.08 mM
